Measured values: patent US20100241219A1, “MEDICAMENT DELIVERY ARTICLE, ACCESSORY & SYSTEM” (ABBEYMOOR MEDICAL , INC, priority 2005, published 2010)

Legend:
[1] = Dye penetration from polyurethane coating on silicone sheets into calf liver tissue; assay type: in vitro ADME; details: 1% dye in TPU matrix on silicone rubber sheet placed against calf liver for 24 or 48 hours
Experimental: Mitoxantrone, and ciprofloxacin were likewise tested.
Dyes and drugs were first coated onto silicone rubber sheets as droplets, and dried at 70° C. overnight. To gain a first approximation of the ability of the dyes to penetrate tissue, the sheets were placed against the outer membrane of calf liver, either for 24 or 48 hours. The tissue was placed on top of the sheet and supplied with nothing more that the pressure of the tissue against the sheet.

[2] = Dye penetration from coated stents into excised human prostate tissue; details: dye bands on stent in excised prostate, 37° C., after 48 hours
Source text: As to materials, acidic, basic or lipophilic dyes, with molecular weights in the range of 3-400, were used, including: crystal violet (MW 408); basic Nile blue (MW 300); Nile red lipophilic; oil red O lipophilic; erythrosin (MW 890) acidic; and, methylene blue (MW 319) acidic. Mitoxantrone, and ciprofloxacin were likewise tested. The dyes and agents were mixed in a thermoplastic polyurethane (TPU) matrix comprising of 30/70 weight ratio of Carbothane® 72D, an aliphatic, polycarbonate based TPU, to Tecophil®, a hydrophilic, aliphatic, polyether-based TPU (Noveon, Inc.) in a 50/50 mixture of DMAC and THF. The polymers were prepared, 5% by weight, with dyes or agents added to the mixture as an additional 1% by weight.
Human prostate tissue was obtain postmortem, and within 24 hours thereof, and flash froze. The tissue was thereafter thawed at ambient temperature, and used within 12 hours. The tissue was not fixed.
Six dyes, namely, methylene blue, crystal violet, a combination of Nile blue and Nile red, oil red O, and erythrosin were coated onto two stents in the form of 3 mm bands or rings. One stent was coated with both mitoxantrone, and ciprofloxacin. Thereafter, the stents were placed in a phosphate buffered Ringer's solution with 1% virocide into excised prostates for 24 and 48 hours at 37° C. […]

penetration / staining of liver tissue [1]	staining of prostatic tissue [2]	Structure (SMILES)
only mildly stained the tissue	staining the least	Cc1ccc(C)c(N=Nc2cc(C)c(N=Nc3c(O)ccc4ccccc34)cc2C)c1 [oil red O]
only mildly stained the tissue	–	CCN(CC)c1ccc2nc3c4ccccc4c(=O)cc-3oc2c1 [Nile red]
–	approximately equivalent	O.O=C([O-])c1ccccc1-c1c2cc(I)c(=O)c(I)c-2oc2c(I)c([O-])c(I)cc12.[Na+].[Na+] [erythrosin]

Structure (SMILES)	penetration / staining of liver tissue [1]	staining of prostatic tissue [2]
CN(C)c1ccc(C(=C2C=CC(=[N+](C)C)C=C2)c2ccc(N(C)C)cc2)cc1 [crystal violet]	penetrated the tissue to the greatest extent	–
